Blank lines part the entries; values can stand above or below the compound they belong to.
Assays:
[1] = system: rat model of chronic kidney disease; conditions: cited from earlier work; for cardiac and aortic medial hypertrophy / renal effects of angiotensin II and high salt (albuminuria, azotemia, renovascular hypertrophy, glomerular injury, PAI-1 and osteopontin mRNA, tubulointerstitial fibrosis): rat, in vivo
[2] = system: rats with experimental heart failure; conditions: rat, in vivo; cited from earlier work
[3] = system: patients with primary aldosteronism; conditions: oral; cited from earlier work
human CYP11B1 = target: T1, human CYP11B1 (Homo sapiens, UniProt P15538); assay: G-402 cellular enzyme assay, human CYP11B1 (cortisol release, HTRF); type: cell-based; conditions: G-402 cells expressing human CYP11B1; 1 μM Deoxycortisol
T1 construct: expressed in transfected cells
T1 sequence (P15538 25-503): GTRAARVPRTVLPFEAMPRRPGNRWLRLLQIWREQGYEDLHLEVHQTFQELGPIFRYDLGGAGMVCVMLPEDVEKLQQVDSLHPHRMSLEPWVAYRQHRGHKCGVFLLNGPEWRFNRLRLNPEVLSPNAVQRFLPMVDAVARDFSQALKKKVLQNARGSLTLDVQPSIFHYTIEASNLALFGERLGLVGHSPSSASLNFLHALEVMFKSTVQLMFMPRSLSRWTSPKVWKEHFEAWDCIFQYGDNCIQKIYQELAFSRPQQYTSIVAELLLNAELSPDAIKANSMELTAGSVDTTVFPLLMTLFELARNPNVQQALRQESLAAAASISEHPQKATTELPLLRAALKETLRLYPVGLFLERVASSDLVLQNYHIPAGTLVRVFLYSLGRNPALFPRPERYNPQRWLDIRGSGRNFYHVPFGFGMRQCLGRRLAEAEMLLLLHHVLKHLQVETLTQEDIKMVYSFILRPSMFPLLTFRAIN
Source text: (§1) Herein we identified the use of the G-402 cell line as a host cell to ectopically express (transiently or stably) enzymes of the CYP11 family. Specifically we developed stable G-402 cells expressing ectopically human CYP11B1, human CYP11B2, human CYP11A1, cynmolgus CYP11B1 or cynomolgus CYP11B2 enzyme activity. Importantly the identified cell line G-402 expresses co-factors (adrenodoxin and adrenodoxin reductase) important for the activity of the CYP11 family and no relevant enzyme activity of the CYP11 family (in comparison to H295R cells) was detected in these cells. Therefore the G-402 cell line is uniquely suited as a host cell for the ectopic expression of enzymes from the CYP11 family.
(§2) The expression plasmids contains the ORF for either human/cyno CYP11B1 or CYP11B2 under the control of a suitable promoter (CMV-promoter) and a suitable resistance marker (neomycin). Using standard techniques the expression plasmid is transfected into G-402 cells and these cells are then selected for expressing the given resistance markers. Individual cell-clones are then selected and assessed for displaying the desired enzymatic activity using 11-Deoxycorticosterone (Cyp11B2) or 11-Deoxycortisol (Cyp11B1) as a substrate.
(§3) G-402 cells expressing CYP11 constructs were established as described above and maintained in McCoy's 5a Medium Modified, ATCC Catalog No. 30-2007 containing 10% FCS and 400 μg/ml G418 (Geneticin) at 37° C. under an atmosphere of 5% CO2/95% air.
(§4) Cellular enzyme assays were performed in DMEM/F12 medium containing 2.5% charcoal treated FCS and appropriate concentration of substrate (0.3-10 uM 11-Deoxycorticosterone, 11-Deoxycortisol or Corticosterone). For assaying enzymatic activity, cells were plated onto 96 well plates and incubated for 16 h. An aliquot of the supernatant is then transferred and analyzed for the concentration of the expected product (Aldosterone for CYP11B2; Cortisol for CYP11B1). The concentrations of these steroids can be determined using HTRF assays from CisBio analyzing either Aldosterone or Cortisol.
(§5) Inhibition of the release of produced steroids can be used as a measure of the respective enzyme inhibition by test compounds added during the cellular enzyme assay. The dose dependent inhibition of enzymatic activity by a compound is calculated by means of plotting added inhibitor concentrations (x-axes) vs. measured steroid/product level (y-axes). The inhibition is then calculated by fitting the following 4-parameter sigmoidal function (Morgan-Mercer-Flodin (MMF) model) to the raw data points using the least squares method:
(§6) [formula] wherein, A is the maximum y value, B is the EC50 factor determined using XLFit, C is the minimum y value and D is the slope value.
(§7) EC50 values for compounds claimed herein were tested with the G402-based assay system described. Cyp11B2 enzyme activity was tested in presence of 1 μM Deoxycorticosterone and variable amounts of inhibitors; Cyp11B1 enzyme activity was tested in presence of 1 μM Deoxycortisol and variable amounts of inhibitors.

human CYP11B2 = target: T2, human CYP11B2 (Homo sapiens, UniProt P19099); assay: G-402 cellular enzyme assay, human CYP11B2 (aldosterone release, HTRF); type: cell-based; conditions: G-402 cells expressing human CYP11B2; 1 μM Deoxycorticosterone
T2 construct: expressed in transfected cells
T2 sequence (P19099 25-503): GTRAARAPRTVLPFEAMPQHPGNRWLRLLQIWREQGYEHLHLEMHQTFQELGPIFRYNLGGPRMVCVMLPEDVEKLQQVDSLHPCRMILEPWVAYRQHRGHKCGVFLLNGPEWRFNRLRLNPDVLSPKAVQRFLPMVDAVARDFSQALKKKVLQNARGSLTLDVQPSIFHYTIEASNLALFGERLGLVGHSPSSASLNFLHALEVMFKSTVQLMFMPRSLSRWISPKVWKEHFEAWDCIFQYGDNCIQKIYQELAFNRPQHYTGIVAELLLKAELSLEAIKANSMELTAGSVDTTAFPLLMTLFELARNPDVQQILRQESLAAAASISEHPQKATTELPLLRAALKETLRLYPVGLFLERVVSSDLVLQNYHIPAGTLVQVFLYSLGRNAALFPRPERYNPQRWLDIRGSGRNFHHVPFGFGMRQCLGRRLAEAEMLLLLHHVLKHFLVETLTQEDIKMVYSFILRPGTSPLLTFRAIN
Source text: as §1, §2, §3, §4, §5, §6, §7

SMILES: N#Cc1ccc([C@H]2CCCc3cncn32)cc1 [FAD286]
plasma aldosterone ([1]; following 4 weeks of treatment): reduced
cardiac and aortic medial hypertrophy [1]: attenuated
renal effects of angiotensin II and high salt (albuminuria, azotemia, renovascular hypertrophy, glomerular injury, PAI-1 and osteopontin mRNA, tubulointerstitial fibrosis) [1]: prevented
blood pressure and cardiovascular function and structure [2]: improved
kidney function and morphology [2]: improve

SMILES: N#Cc1ccc([C@H]2CCc3cncn32)c(F)c1 [LCI699]
blood pressure [3]: mildly decreased
circulating aldosterone levels [3]: significantly lower
hypokalemia [3]: corrected
selectivity (effects on the glucocorticoid axis) [3]: poor selectivity

SMILES: CC(=O)S[C@@H]1CC2=CC(=O)CC[C@]2(C)[C@H]2CC[C@@]3(C)[C@@H](CC[C@@]34CCC(=O)O4)[C@H]12 [spironolactone]
aldosterone ([1]; at 4 and 8 weeks of treatment): increased
angiotensin II and salt-stimulated PAI-1 mRNA expression ([1]; in the aorta and the heart): enhanced
cardiac and aortic medial hypertrophy [1]: attenuated
renal effects of angiotensin II and high salt (albuminuria, azotemia, renovascular hypertrophy, glomerular injury, PAI-1 and osteopontin mRNA, tubulointerstitial fibrosis) [1]: prevented

EC50 (human CYP11B1): 0.356 µM
EC50 (human CYP11B2): 0.0088 µM
SMILES: CN1C(=O)CCc2cc(-c3cncc(Cn4ccc(C#N)cc4=O)c3)ccc21 [Example 14, 1-[5-(1-Methyl-2-oxo-1,2,3,4-tetrahydro-quinolin-6-yl)-pyridin-3-ylmethyl]-2-oxo-1,2-dihydro-pyridine-4-carbonitrile]

EC50 (human CYP11B1): 0.0913 µM
EC50 (human CYP11B2): 0.001 µM
SMILES: Cc1c(Cn2c(F)cccc2=O)cncc1-c1cc2c(cc1F)N(C)C(=O)CC2 [Example 27, 7-Fluoro-6-[5-(6-fluoro-2-oxo-2H-pyridin-1-ylmethyl)-4-methyl-pyridin-3-yl]-1-methyl-3,4-dihydro-1H-quinolin-2-one]

EC50 (human CYP11B1): 0.177 µM
EC50 (human CYP11B2): 0.0014 µM
SMILES: CN1C(=O)CCc2cc(-c3cncc(Cn4c(=O)sc5ccccc54)c3)ccc21 [Example 1, 1-Methyl-6-[5-(2-oxo-benzothiazol-3-ylmethyl)-pyridin-3-yl]-3,4-dihydro-1H-quinolin-2-one]

EC50 (human CYP11B1): 0.516 µM
EC50 (human CYP11B2): 0.0105 µM
SMILES: CN1C(=O)CCc2cc(-c3cncc(Cn4cc(Cl)ccc4=O)c3)ccc21 [Example 9, 6-[5-(5-Chloro-2-oxo-2H-pyridin-1-ylmethyl)-pyridin-3-yl]-1-methyl-3,4-dihydro-1H-quinolin-2-one]

EC50 (human CYP11B1): 1.22 µM
EC50 (human CYP11B2): 0.0293 µM
SMILES: CN1C(=O)CCc2cc(-c3cncc(Cn4cccc(Cl)c4=O)c3)ccc21 [Example 4, 6-[5-(3-Chloro-2-oxo-2H-pyridin-1-ylmethyl)-pyridin-3-yl]-1-methyl-3,4-dihydro-1H-quinolin-2-one]

From patent publication US9593107B2, “Dihydroquinoline-2-one derivatives” (Hoffmann-La Roche Inc., priority 2014, dated 2017)
